Experimental findings from patent US20120277257A1, “Methods of Treating Diseases, Pharmaceutical Compositions, and Pharmaceutical Dosage Forms” (MYREXIS, INC., priority 2009, published 2012) are described below.

Data set [1] deals with NCI-N87 Her2+ gastric cancer. Briefly: NCI-N87 (Her2+) gastric cancer xenograft in athymic nude mice. The class given is in vivo. Conditions: for TGI (tumor growth inhibition): daily for 21 days.
Data set [2] deals with MIA PaCa-2 pancreatic cancer. As to the kind of experiment: MIA PaCa-2 pancreatic cancer xenograft.
The test system of data set [3] is Hsp70 protein levels in PBMCs. As to the kind of experiment: Hsp70 protein levels in PBMCs of patients (ELISA). The data set is classed as in vivo, human. Conditions: 8 hours after the first dose, sustained on day 8 and day 22. (An ELISA detects its analyte on a solid surface through an enzyme-linked reagent.)
Description: A human clinical study was initiated at a starting dose of 50 mg/m^2. Subjects had recurrent cancer refractory to available systemic therapy. […] For determination of drug levels in humans, plasma was collected prior to drug administration and 0.5, 1, 2, 3, 4, 6, 8, and 24 hours post-dosing on cycle 1 day 1, and cycle 1 day 21. Plasma was collected pre-dose only for cycle 1 day 8.
Hsp70 protein levels were determined by an ELISA with a Hsp 70 ELISA kit (catalog #EKS-700B, Assay Designs, Stressgen, Ann Arbor, Mich.) as per the manufacturer's protocol.
A further data set is described as follows: in vivo. Conditions: female, Hsd:athymic nude-Foxn1^nu, mouse, po. As to the method: The efficacy of Compound 1 was compared to that of SNX-5422 (Serenex, Pfizer, Inc.) on the growth of NCI-N87 (Her2+) human gastric cancer cells as a xenograft in athymic nude mice model. Animals were dosed with either 200 mg/kg of Compound 1 on days 1 through 21 or 40 mg/kg of SNX-5422 thrice weekly for three weeks. Tumor volumes and body weights were determined from Days 1 to 39.
Five million NCI-N87 cells were implanted subcutaneously in the right flank of female nude mice (Hsd:athymic nude-Foxn1^nu). When the median tumor volume was approximately 123 mm^3, mice were randomized into three cohorts of ten animals. One cohort was dosed orally with vehicle, one cohort was dosed orally with Compound 1 (200 mg/kg) formulated in vehicle, and one cohort was dosed orally with SNX-5422 (40 mg/kg) formulated in dimethylacetamide/polyethylene glycol 300. Vehicle and Compound 1 were administered on days 1-21 and SNX-5422 was administered thrice weekly on Days 1, 3, 5, 8, 10, 12, 15, 17 and 19. The mice were observed daily for mortality and signs of toxicity.

The subject of the next data set is B16 melanoma allograft. Briefly: B16 melanoma allograft. The class given is in vivo, mice. To be noted: 200 mg/kg oral, daily for 8 days.
Data set [4] in a line: Plasma pharmacokinetics in N-87 tumor-bearing nude mice. The class given is in vivo. To be noted: mouse, 200 mg/kg single dose, median values (n = 6). As to the method: Xenografted mice bearing N-87 tumors (median volume ˜425 mm^3) were given a single oral dose of Compound 1 (200 mg/kg). Blood, tumor and liver samples (n=6) were collected at 0.25, 0.5, 1, 2, 4, 8, 12, 24, 36 and 48 h post-dose and used to determine Compound 1 concentrations in the plasma and Hsp70 RNA levels in tumor and liver samples (See FIG. 6). Hsp70 RNA levels were determined by qRT-PCR.

The test system of data set [5] is NCI-H460 non-small cell lung cancer. As to the kind of experiment: NCI-H460 non-small cell lung cancer xenograft. The class given is in vivo, mice. Conditions: 200 mg/kg oral, daily for 21 days.
A further data set relates to DU-145 prostate cancer. Briefly: DU-145 prostate cancer xenograft. The data set is classed as in vivo, mice. To be noted: 200 mg/kg oral, 5-days-on/2-days-off, after 5 cycles.

Turning to `C[C@H](O)C(=O)N1CCC(CCn2c(Sc3cc4c(cc3Br)OCO4)nc3c(N)ncnc32)CC1` [Compound 1, (2S)-1-[4-(2-{6-amino-8-[(6-bromo-1,3-benzodioxol-5-yl)thio]-9H-purin-9-yl}ethyl)piperidin-1-yl]-1-oxopropan-2-ol], the “TGI (tumor growth inhibition)” value in data set [1] (100 mg/kg oral, Day 21, p = 0.003) is listed as 82% TGI (p = 0.003) Day 21; in data set [1] (125 mg/kg oral), 100% TGI (125 mg/kg); in data set [2] (150 mg/kg oral, daily for 15 days, Day 15), 67%; in data set [2] (150 mg/kg oral, daily for 21 days (Table 1)), 67%; in data set [2] (200 mg/kg oral, daily for 15 days, Day 15) it was 95%; in data set [2] (200 mg/kg oral, daily for 21 days (Table 1)), 95%. Besides, the “TGI (tumor growth inhibition)” value in the data set with B16 melanoma allograft was 50% TGI; in data set [5] (p = 0.05) it was 61%. For the same molecule, the tumor regression in data set [1] (200 mg/kg oral, daily for 21 days (50, 75, 125, 200 mg/kg study)) is 50% regression (200 mg/kg);. The “Hsp70 levels in protein extracts derived from PBMCs” value in data set [3] was “showed an increase”. For the same molecule, in the data set “in vivo”, the MTD stood at 200 mg/kg. In addition, the maximum concentration (Cmax) in data set [4] (oral) came to 21800 ng/mL. For the same molecule, in data set [4] (oral, read-out: AUC(0-24)), the AUC(0-t) amounted to 136 µg·h/mL. The Tmax in data set [4] (po) was 4 h. In data set [4] (po), this molecule had a half-life of 4.8 h. The “time to tumor volume 1,500 mm^3” value in data set [5] (p = 0.006) is on record as “extended”. Besides, the “treated mice with tumors <1,500 mm^3” value in data set [5] (compared to 1/10 for vehicle arm) is on record as 4/8 treated mice have tumors. Besides, the “TGI (tumor growth inhibition), average” value in the data set with DU-145 prostate cancer is reported as “Average of ~80% TGI after 5”.

Usually Cmax stands for the peak of the concentration-time curve. What is called Tmax is the time from dosing to the highest level. A word on the half-life: it is the time needed for the level to fall by half in the phase considered. Higher therefore signals slow decline.
